Reference: publication PMC8284454, “In Vitro Profiling of Antitubercular Compounds by Rapid, Efficient, and Nondestructive Assays Using Autoluminescent Mycobacterium tuberculosis” (Antimicrobial Agents and Chemotherapy, 2021)
Converted amounts (≈) assume the structure as drawn. Like-named read-outs stand apart in the source and are kept apart here. Marks after values point to notes of the source that are not given here.

Tests used:
[1] = tested on: M. tuberculosis H37Rv_LuxABCDE; experiment: microbe, parasite or virus in culture; assay type: cell-based, Mycobacterium tuberculosis; settings: day 7, SD from three independent experiments; for MBC: Mycobacterium tuberculosis, read-out: MBC (±SD) via CFU
[2] = tested on: M. tuberculosis H37Rv_LuxABCDE; experiment: microplate alamarBlue assay (MABA) MIC; settings: 90% reduction of fluorescence, 7 days, 7H12 medium; SD from three independent experiments
[3] = tested on: M. tuberculosis H37Rv_LuxABCDE; experiment: luminescence-based MIC assay (LMICA); settings: for MIC (±SD) LMICA: 90% reduction of luminescence, 7 days, 7H12 medium, SD from three independent experiments
[4] = tested on: M. tuberculosis H37Rv_LuxABCDE; experiment: luminescence-based MBC assay (LMBCA) / time-kill; assay type: cell-based, Mycobacterium tuberculosis; settings: for change of MBC values over time: over 21 days, luminescence time-kill; for time and/or concentration dependence of bactericidal activity: time-kill curves up to day 21
[5] = tested on: M. tuberculosis H37Rv_LuxABCDE; assay type: cell-based, Mycobacterium tuberculosis; settings: 1:10,000-fold dilution
[6] = tested on: M. tuberculosis H37Rv_LuxABCDE; experiment: postantibiotic effect by luminescence (RLU); assay type: cell-based, Mycobacterium tuberculosis; settings: 1.5 log10 RLU increase, 1:10,000-fold dilution
[7] = tested on: J774 infected with M. tuberculosis strain Erdman; settings: read-out: Literature reported EC90; cited from earlier work
[8] = tested on: J774-internalized M. tuberculosis (H37Rv); experiment: intracellular activity by luminescence (EC90); assay type: cell-based, Mycobacterium tuberculosis; settings: for EC90: RLU; for onset of growth inhibition of internalized M. tuberculosis: early = EC90 obtainable by day 3, late = EC90 obtainable by day 5 or later
[9] = tested on: macrophage-internalized M. tuberculosis; settings: read-out: Literature reported EC90, cited from earlier work
[10] = Mycobacterium tuberculosis, 168 h, day 7, 99% reduction in RLU vs T0, SD from three independent experiments, read-out: MBC (±SD) via luminescence
[11] = Mycobacterium tuberculosis, 336 h, day 14, 99% reduction in RLU vs T0, read-out: MBC (±SD) by luminescence on day 14
[12] = Mycobacterium tuberculosis, 504 h, day 21, 99% reduction in RLU vs T0, read-out: MBC (±SD) by luminescence on day 21
[13] = day 7, 99% reduction in RLU vs T0, SD from three independent experiments
[14] = Mycobacterium tuberculosis, H37RV, 72 h, EC90, day 3, J774 macrophages, read-out: Intracellular activity, EC90 (±SD) Day 3
[15] = Mycobacterium tuberculosis, H37RV, 120 h, EC90, day 5, J774 macrophages, read-out: Intracellular activity, EC90 (±SD) Day 5
[16] = Mycobacterium tuberculosis, H37RV, 168 h, EC90, day 7, J774 macrophages, read-out: Intracellular activity, EC90 (±SD) Day 7

| Compound | MBC [1] [µM] | MIC (±SD) MABA [2] | MIC (±SD) LMICA [3] | MBC [4, 10] [µM] | MBC [4, 11] [µM] | MBC [4, 12] [µM] | change of MBC values over time [4] | time and/or concentration dependence of bactericidal activity [4] | MBC (±SD) via luminescence [4, 13] | EC90 [8, 14] [µM] | EC90 [8, 15] [µM] | EC90 [8, 16] [µM] | onset of growth inhibition of internalized M. tuberculosis [8] | EC90 ([9]; EC90) [µM] | further results |
| --- | --- | --- | --- | --- | --- | --- | --- | --- | --- | --- | --- | --- | --- | --- | --- |
| COc1c(N2C[C@@H]3CCCN[C@@H]3C2)c(F)cc2c(=O)c(C(=O)O)cn(C3CC3)c12 [Moxifloxacin] | 0.753 (≈ 0.302 µg/mL) | 0.24 (0.04) μM | 0.13 (0.02) μM | 0.91 (≈ 0.365 µg/mL) | 0.42 (≈ 0.169 µg/mL) | 0.46 (≈ 0.185 µg/mL) | decreased | both time and concentration dependent |  |  |  |  |  |  |  |
| C/C=C/C[C@@H]1NC(=O)[C@H](CC(C)C)N2C(=O)[C@H](C[C@H](C)C2O)N(C)C(=O)[C@H](C)NC(=O)[C@H](Cc2ccc(O)c([N+](=O)[O-])c2)NC(=O)[C@H](CC(C)C)N(C)C(=O)[C@H](Cc2cn(C(C)(C)C3CO3)c3ccccc23)NC1=O (some centres unmarked) [Rufomycin] |  | 0.032 (0.012) μM | 0.010 (0.001) μM |  |  |  | decreased | mainly time dependent | >1^c μM |  |  |  |  |  | PAE 1× MIC CFU/ml ([5]; 3 h exposure at 1× MIC): 0 h; PAE 10× MIC CFU/ml ([5]; 3 h exposure at 10× MIC): 48 h; PAE 100× MIC CFU/ml ([5]; 3 h exposure at 100× MIC): 110 h; MBC (±SD) via CFU [1]: >1^b μM; PAE 1× MIC RLU ([6]; 3 h exposure at 1× MIC): 0 h; PAE 10× MIC RLU ([6]; 3 h exposure at 10× MIC): 40 h; PAE 100× MIC RLU ([6]; 3 h exposure at 100× MIC): 96 h; EC90 [7]: ~0.1 µM; EC90 ([8]; EC90, day 3, J774 macrophages, read-out: Intracellular activity, EC90 (±SD) Day 3): > 10 µM; EC90 ([8]; EC90, day 5, J774 macrophages, read-out: Intracellular activity, EC90 (±SD) Day 5): 3.06 µM; EC90 ([8]; EC90, day 7, J774 macrophages, read-out: Intracellular activity, EC90 (±SD) Day 7): 1.52 µM; percent inhibition at the highest tested concentration, intracellular activity Day 3 ([8]; day 3, 10 μM): 69%; MIC lower than ecumicin ([3]; ratio of MICs of Table 1): 7 fold; Toxicity against infected J774, percent inhibition at the highest tested concentration (infected J774; day 7, 10 μM): 10 (8)* percent; bactericidal or bacteriostatic activity [4]: bacteriostatic; MBC ([4]; day 7, 99% reduction in RLU vs T0, SD from three independent experiments, read-out: MBC (±SD) via luminescence): > 1 µM; MBC ([4]; day 14, 99% reduction in RLU vs T0, read-out: MBC (±SD) by luminescence on day 14): > 1 µM |
| O=[N+]([O-])c1cn2c(n1)OC[C@@H](OCc1ccc(OC(F)(F)F)cc1)C2 [Pretomanid] | 0.5 (≈ 0.18 µg/mL) | 0.49 (0.02) μM | 0.46 (0.01) μM | 0.63 (≈ 0.226 µg/mL) | 12.5 (≈ 4.49 µg/mL) | 13 (≈ 4.67 µg/mL) | increase | both time and concentration dependent |  |  |  |  |  |  |  |
| CC(C)/N=c1\cc2n(-c3ccc(Cl)cc3)c3ccccc3nc-2cc1Nc1ccc(Cl)cc1 [Clofazimine] | > 4 | 0.014 (0.02) μM |  | 1.81 (≈ 0.857 µg/mL) | 0.82 (≈ 0.388 µg/mL) | 1.01 (≈ 0.478 µg/mL) | decreased | both time and concentration dependent | 1.8 (0.19) μM | 19 | 6.69 | 3.7 | early growth inhibition | ~2.1 | Toxicity against infected J774, percent inhibition at the highest tested concentration (infected J774; day 7, 50 μM): 50 (45)* percent |
| CC(=O)NC[C@H]1CN(c2ccc(N3CCOCC3)c(F)c2)C(=O)O1 [Linezolid] | > 29 | 1.7 (0.10) μM | 1.7 (0.23) μM | 9.6 (≈ 3.24 µg/mL) | 7 (≈ 2.36 µg/mL) | 6 (≈ 2.02 µg/mL) | decreased | mainly time dependent |  |  |  |  |  |  |  |
| Capreomycin |  | 0.70 (0.03) μM | 0.53 (0.07) μM |  |  |  | increase |  | 1.3 (0.4) μM |  |  |  |  |  | MBC (±SD) via CFU [1]: 1.7 (0.9) μM; MBC (±SD) by luminescence on day 14 ([4]; day 14, 99% reduction in RLU vs T0): 6.94 (3.8) µM; MBC (±SD) by luminescence on day 21 ([4]; day 21, 99% reduction in RLU vs T0): 13.65 (2.34) µM |
| COc1nc2ccc(Br)cc2cc1[C@@H](c1ccccc1)[C@@](O)(CCN(C)C)c1cccc2ccccc12 [Bedaquiline] | 0.16 (≈ 0.0889 µg/mL) | 0.021 (0.01) μM | 0.028 (0.01) μM | 0.13 (≈ 0.0722 µg/mL) | 0.11 (≈ 0.0611 µg/mL) | 0.12 (≈ 0.0667 µg/mL) |  | primarily concentration dependent |  | 0.89 | 0.29 | 0.22 | early growth inhibition | 0.1 | Toxicity against infected J774, percent inhibition at the highest tested concentration (infected J774; day 7, 2 μM): 2 (7)* percent |
| NCC[C@H](O)C(=O)N[C@@H]1C[C@H](N)[C@@H](O[C@H]2O[C@H](CN)[C@@H](O)[C@H](O)[C@H]2O)[C@H](O)[C@H]1O[C@H]1O[C@H](CO)[C@@H](O)[C@H](N)[C@H]1O [Amikacin] |  |  |  |  |  |  |  |  |  | > 34 | > 34 | > 34 |  |  | inhibition at 34 µM ([8]; Mycobacterium tuberculosis, H37RV, 72 h, day 3, 34 μM, read-out: percent inhibition at the highest tested concentration, intracellular activity Day 3): 4%; inhibition at 34 µM ([8]; Mycobacterium tuberculosis, H37RV, 120 h, day 5, 34 μM, read-out: percent inhibition at the highest tested concentration, intracellular activity Day 5): 34%; inhibition at 34 µM ([8]; Mycobacterium tuberculosis, H37RV, 168 h, day 7, 34 μM, read-out: percent inhibition at the highest tested concentration, intracellular activity Day 7): 49%; EC90 ([9]; EC90, high-content imaging on day 5): > 26 µM |
| [H]/N=C(/N)N[C@H]1[C@H](O)[C@@H](O)[C@H](O[C@@H]2O[C@@H](C)[C@](O)(C=O)[C@H]2O[C@@H]2O[C@@H](CO)[C@H](O)[C@@H](O)[C@@H]2NC)[C@@H](N/C(N)=N\[H])[C@@H]1O [Streptomycin] | 0.37 (≈ 0.215 µg/mL) | 0.12 (0.02) μM | 0.12 (0.04) μM | 0.3 (≈ 0.174 µg/mL) | 0.5 (≈ 0.291 µg/mL) | 0.9 (≈ 0.523 µg/mL) |  | both time and concentration dependent |  |  |  |  |  |  |  |
| CC[C@@H](CO)NCCN[C@@H](CC)CO [Ethambutol] | 7.9 (≈ 1.61 µg/mL) | 2.0 (0.41) μM | 1.3 (0.38) μM | 9.18 (≈ 1.88 µg/mL) | 3.17 (≈ 0.648 µg/mL) | 3.28 (≈ 0.67 µg/mL) | decreased | mainly time dependent | 9.2 (2.7) μM | > 50 | 44 | 23.8 | late growth inhibition | 16.7 | inhibition at 50 µM ([8]; Mycobacterium tuberculosis, H37RV, 72 h, day 3, 50 μM, read-out: percent inhibition at the highest tested concentration, intracellular activity Day 3): 68%; Toxicity against infected J774, percent inhibition at the highest tested concentration (infected J774; day 7, 50 μM): 50 (0)* percent |
